# From patent publication US9951058B2, “Compound, pharmaceutically acceptable salt or optical isomer thereof, method for preparing the same, and pharmaceutical composition for prevention or treatment of viral diseases containing same as active ingredient” (Korea Research Institute of Chemical Technology, priority 2012, dated 2018)
# Like-named read-outs stand apart in the source and are kept apart here.
# Experiments:
# [1] = test system: rhinoviruses and enteroviruses; settings: cited from earlier work
# HRV 14 = test: Cytopathic effect (CPE) inhibition assay; format: cell-based, human rhinovirus; settings: for EC50 HRV 14: host cell HeLa, 3 days, MEM/2% FBS, MTT assay
# HRV 21 = test: Cytopathic effect (CPE) inhibition assay; format: cell-based, human rhinovirus; settings: for EC50 HRV 21: host cell HeLa, 3 days, MEM/2% FBS, MTT assay
# HRV 71 = test: Cytopathic effect (CPE) inhibition assay; format: cell-based, human rhinovirus; settings: for EC50 HRV 71: host cell HeLa, 3 days, MEM/2% FBS, MTT assay
# [2] = test system: coxsackievirus B1 (Cox B1); test: Multicycle cytopathic effect (CPE) reduction assay; format: cell-based; settings: for EC50 CoxB1: 100 CCID50, MTS, 37° C., 3 days
# [3] = test system: coxsackievirus B3 (Cox B3); test: Multicycle cytopathic effect (CPE) reduction assay; format: cell-based; settings: for EC50 CoxB3: 100 CCID50, MTS, 37° C., 3 days
# poliovirus 3 (PV3) = test: microbe, parasite or virus in culture; format: cell-based; settings: for EC50 PV3: 100 CCID50, MTS, 37° C., 3 days
# [4] = test system: HeLa (human cervical cancer cells)
# HeLa = test: Cytotoxicity (CC50) in multicycle CPE reduction assay, MTS; settings: Table 4; MTS, 37° C., 3 days
# [5] = as above; settings: human
# [6] = Cytotoxicity (CC50) in mock-infected cells, CPE inhibition assay, MTT; settings: human
# [7] = test system: HeLa (human cervical cancer cells); test: as above; settings: Table 3; mock-infected cells, MTT assay, 2-3 days
# [8] = in vivo, cited from earlier work
# [9] = cited from earlier work
# [10] = test system: 48 rhinovirus types and coxsackievirus A21, B3, enterovirus 70 and echovirus 11; settings: Pattick et al. 1999; cited from earlier work
Compound,antiviral effects in the cell culture [1],EC50 HRV 14 (HRV 14) [µg/mL],EC50 HRV 21 (HRV 21) [µg/mL],EC50 HRV 71 (HRV 71) [µg/mL],EC50 CoxB1 [2] [µg/mL],EC50 CoxB3 [3] [µg/mL],EC50 PV3 (poliovirus 3 (PV3)) [µg/mL],CC50 Cytotoxicity (HeLa) [µg/mL],further results
CCOC(=O)c1ccc(OCCC2CCN(c3ccc(C)nn3)CC2)cc1 [pirodavir],very good antiviral effects,–,–,–,–,–,–,–,–
"CC(C)c1ccc2c(c1)OC1(O)c3ccccc3C(=O)C21NC(=O)CCC(=O)O (stereo not drawn) [Example 57, 4-((4b-hydroxy-7-isopropyl-10-oxo-4b, 10-dihydro-9bH-indeno[1,2-b]benzofuran-9b-yl)amino)-4-oxo butanoic acid]",–,<10.0,>10.0,>10.0,<1.0,<1.0,>10.0,>10.0,CC50 Cytotoxicity [4]: >10.0 µg/mL
"CC(C)c1ccc2c(c1)OC1(O)c3c(cccc3[N+](=O)[O-])C(=O)C21NC(=O)C(=O)Cc1ccccc1[N+](=O)[O-] (stereo not drawn) [Example 25, N-(4b-hydroxy-7-isopropyl-4-nitro-10-oxo-4b, 10-dihydro-9bH-indeno[1,2-b]benzofuran-9b-yl)-3-(2-nitrophenyl)-2-oxo propanamide]",–,–,–,–,–,–,–,–,"EC50 (HRV 14; Human rhinovirus sp., HeLa, 72 h, read-out: EC50 HRV 14): > 2.6 µg/mL; EC50 (HRV 21; Human rhinovirus sp., HeLa, 72 h, read-out: EC50 HRV 21): > 2.6 µg/mL; EC50 (HRV 71; Human rhinovirus sp., HeLa, 72 h, read-out: EC50 HRV 71): > 2.6 µg/mL; EC50 ([2]; Enterovirus B, B1, 72 h, read-out: EC50 CoxB1): < 1 µg/mL; EC50 ([3]; Enterovirus B, B3, 72 h, read-out: EC50 CoxB3): < 1 µg/mL; EC50 (poliovirus 3 (PV3); Enterovirus C, 72 h, read-out: EC50 PV3): > 9.5 µg/mL; CC50 at 3 days [5]: 9.5 µg/mL; CC50 [6]: 2.6 µg/mL"
"N-(1-amino-4b-hydroxy-7-isopropyl-10-oxo-4b, 10-dihydro-9bH-indeno[1,2-b]benzofuran-9b-yl)-2-oxo hexanamide [Example 50]",–,<0.1,>10.0,>10.0,<0.1,<0.1,<1.0,>10.0,CC50 Cytotoxicity [7]: >10.0 µg/mL
CCC(=O)C(CCCCCCOc1ccc(OC)cc1Cl)C(=O)CC [arildone],very good antiviral effects,–,–,–,–,–,–,–,bioavailability [8]: low bioavailability
Cc1cc(CCCOc2c(C)cc(-c3noc(C(F)(F)F)n3)cc2C)on1 [Pleconaril],–,–,–,–,–,–,–,–,oral bioavailability ([8]; po): very good oral bioavailability; therapeutic effect ([9]; clinical): therapy success was too low; side effects ([9]; in vivo): side effects were observed
CCOC(=O)/C=C/[C@H](C[C@@H]1CCNC1=O)NC(=O)[C@@H](CC(=O)[C@@H](NC(=O)c1cc(C)on1)C(C)C)Cc1ccc(F)cc1 [AG 7088],–,–,–,–,–,–,–,–,concentration range of effect in the cell culture [10]: nanomolar concentration range
"N-(4b-hydroxy-7-isopropyl-4-nitro-10-oxo-4b, 10-dihydro-9bH-indeno[1,2-b]benzofuran-9b-yl)-2-oxo-4-phenyl butanamide [Example 59]",–,<0.1,>8.6,>8.6,<0.1,<0.1,<0.1,>10.0,CC50 Cytotoxicity [7]: 8.6 µg/mL
Cc1cc(CCCCCCCOc2ccc(C3=NCCO3)cc2)on1 [disoxaril],very good antiviral effects,–,–,–,–,–,–,–,bioavailability [8]: low bioavailability; metabolization and excretion [8]: rapid metabolization and excretion
